Data taken from the NIST ThermoML archive (doi:10.1021/je0301500).

Key:
[1] = 303.15 K; for surface tension liquid-gas: Ring tensiometer; for viscosity / mass density: 101.33 kPa, Liquid; for viscosity: Falling or rolling sphere viscometry; for mass density: Vibrating tube method
[2] = xn = mol fraction of the nth substance listed; details: 303.15 K; for surface tension liquid-gas: Ring tensiometer; for viscosity / mass density: 101.33 kPa, Liquid; for viscosity: Falling or rolling sphere viscometry; for mass density: Vibrating tube method

CCCC(=O)OCC [ethyl butanoate]
[1]
Details	mass density [kg/m3]	surface tension liquid-gas [mN/m]	viscosity [mPa·s]
–	868.21	23.4	0.591

CCCC(=O)OCC [ethyl butanoate] + CO
[2]
Details	mass density [kg/m3]	surface tension liquid-gas [mN/m]	viscosity [mPa·s]
x1 = 0.05	–	21.86	–
x1 = 0.101	–	22.03	–
x1 = 0.104	–	–	0.511
x1 = 0.15	–	22.22	–
x1 = 0.1993	820.83	–	–
x1 = 0.2	–	22.36	–
x1 = 0.2036	–	–	0.517
x1 = 0.299	–	22.65	–
x1 = 0.3	832.61	–	–
x1 = 0.3147	–	–	0.522
x1 = 0.4	841.45	22.85	–
x1 = 0.4147	–	–	0.529
x1 = 0.449	845.03	–	–
x1 = 0.474	846.71	–	–
x1 = 0.496	–	22.99	–
x1 = 0.4995	848.3	–	–
x1 = 0.5064	–	–	0.535
x1 = 0.5997	853.94	–	–
x1 = 0.605	–	23.12	–
x1 = 0.6226	–	–	0.543
x1 = 0.65	856.33	–	–
x1 = 0.6976	–	–	0.551
x1 = 0.7	–	23.18	–
x1 = 0.7495	860.43	–	–
x1 = 0.8	–	23.29	–
x1 = 0.8054	–	–	0.565
x1 = 0.883	–	23.35	–
x1 = 0.899	865.48	–	–
x1 = 0.9001	865.54	–	–
x1 = 0.9004	–	–	0.577
x1 = 0.9465	866.88	–	–

CCCC(=O)OCC [ethyl butanoate] + O
[2]
Details	mass density [kg/m3]	surface tension liquid-gas [mN/m]	viscosity [mPa·s]
x2 = 0.0128	–	–	0.587
x2 = 0.018	–	23.46	–
x2 = 0.019	868.19	–	–
x2 = 0.0319	–	–	0.584
x2 = 0.033	868.46	–	–
x2 = 0.039	868.71	–	0.586
x2 = 0.041	–	23.53	–
x2 = 0.0488	–	–	0.584
x2 = 0.055	–	23.6	–
x2 = 0.056	868.98	–	–
x2 = 0.0588	–	–	0.597

CO [methanol]
[1]
Details	mass density [kg/m3]	surface tension liquid-gas [mN/m]	viscosity [mPa·s]
–	781.91	21.68	0.504

CO [methanol] + O
[2]
Details	mass density [kg/m3]
x2 = 0.1031	799.74
x2 = 0.2055	818.52
x2 = 0.3014	836.97
x2 = 0.4013	857.06
x2 = 0.4994	877.48
